56 compounds from patent US20170057954A1, “SUBSTITUTED IMIDAZO[1,2-A]PYRIDINECARBOXAMIDES AND THEIR USE” (Bayer Pharma Aktiengesellschaft, priority 2014, published 2017) can be followed below.

The assay deals with recombinant guanylate cyclase reporter cell line. The assay is described as follows: Effect on a recombinant guanylate cyclase reporter cell line. It counts as cell-based. As to conditions: in some cases mean values for individual determinations, read-out: MEC (minimum effective concentration). The procedure:
B-2. Effect on a Recombinant Guanylate Cyclase Reporter Cell Line
The cellular activity of the compounds according to the invention is determined using a recombinant guanylate cyclase reporter cell line, as described in F. Wunder et al., Anal. Biochem. 339, 104-112 (2005).
Representative MEC values (MEC=minimum effective concentration) for the compounds of the invention are shown in the table below (in some cases as mean values for individual determinations): […]
Turning to `Cc1cc(OCc2c(F)cccc2F)c2nc(C)c(C(=O)NNc3cc(Cl)c(C)cc3C)n2c1` [Example 58], the minimal effective concentration amounted to 0.3 µM.
In the case of `Cc1cc(OC(C)c2c(F)cccc2F)c2nc(C)c(C(=O)NOCCO)n2c1` (centres unmarked) [Example 13], the minimal effective concentration was 10 µM.
As to `Cc1cc(OCc2c(F)cccc2F)c2nc(C)c(C(=O)NOC[C@H](O)CO)n2c1` [Example 11, 8-[(2,6-Difluorobenzyl)oxy]-N-{[(2R)-2,3-dihydroxypropyl]oxy}-2,6-dimethylimidazo[1,2-a]pyridine-3-carboxamide], the minimal effective concentration is 1 µM.
As to `Cc1cc(OCc2c(F)cccc2F)c2nc(C)c(C(=O)NN3CCCCCC3)n2c1` [Example 62], the minimal effective concentration turned out to be 0.1 µM.
`Cc1cc(OCc2c(F)cccc2F)c2nc(C)c(C(=O)NOCC(=O)N3CCN(c4ccccc4)CC3)n2c1` [Example 5]: the minimal effective concentration stood at 10 µM.
On to `Cc1cc(OCc2c(F)cccc2F)c2nc(C)c(C(=O)NNc3cccc(C(F)(F)F)c3)n2c1` [Example 45], for which the minimal effective concentration was found to be 0.3 µM.
Turning to `Cc1cc(OCc2c(F)ccc(C3CC3)c2F)c2nc(C)c(C(=O)NN3CCOCC3)n2c1` [Example 26], the minimal effective concentration is 10 µM.
For `Cc1cc(OCc2c(F)cccc2F)c2nc(C)c(C(=O)NNc3cccc(Oc4ccccc4)c3)n2c1` [Example 36], the minimal effective concentration worked out at 10 µM.
For the compound `C=CCONC(=O)c1c(C)nc2c(OCc3c(F)cccc3F)cc(C)cn12` [Example 28], the minimal effective concentration is 0.3 µM.
Under `Cc1cc(OCc2c(F)cccc2F)c2nc(C)c(C(=O)NOCC3CCCN3)n2c1` (centres unmarked) [Example 8] stands 3 µM; under `Cc1cc(OCc2c(F)cccc2F)c2nc(C)c(C(=O)NNC3CCS(=O)(=O)C3)n2c1` (centres unmarked) [Example 71], 1 µM; under `CONC(=O)c1c(C)nc2c(OCc3c(F)cccc3F)cc(C)cn12` [Example 29], 1 µM.
For the compound `Cc1cc(OCc2c(F)ccc(F)c2F)c2nc(C)c(C(=O)NN3CCOCC3)n2c1` [Example 12, 2,6-Dimethyl-N-(morpholin-4-yl)-8-[(2,3,6-trifluorobenzyl)oxy]imidazo[1,2-a]pyridine-3-carboxamide], the minimal effective concentration came to 1 µM.
Next, `Cc1cc(OCc2c(F)cccc2F)c2nc(C)c(C(=O)NOC(C)c3ccccc3)n2c1` (racemic) [Example 78, rac-8-[(2,6-Difluorobenzyl)oxy]-2,6-dimethyl-N-(1-phenylethoxy)imidazo[1,2-a]pyridine-3-carboxamide]: 1 µM; `CCCCNNC(=O)c1c(C)nc2c(OCc3c(F)cccc3F)cc(C)cn12` [Example 63]: 3 µM; `COc1cc(OC)nc(NNC(=O)c2c(C)nc3c(OCc4c(F)cccc4F)cc(C)cn23)n1` [Example 43]: 0.3 µM.
Under `Cc1cc(OCc2c(F)cccc2F)c2nc(C)c(C(=O)NNC(C)C)n2c1` [Example 69] stands 10 µM; under `Cc1cc(OCc2c(F)cccc2F)c2nc(C)c(C(=O)NNc3ccc(Cl)cc3)n2c1` [Example 46], 0.1 µM; under `Cc1cc(OCc2c(F)cccc2F)c2nc(C)c(C(=O)NN3CCN(CCO)CC3)n2c1` [Example 30], 1 µM.
Take `Cc1cc(OCc2c(F)cccc2F)c2nc(C)c(C(=O)NNC(=O)CN)n2c1` [Example 75, N′-(Aminoacetyl)-8-[(2,6-difluoroenzyl)oxy]-2,6-dimethylimidazo[1,2-a]pyridine-3-carbohydrazide]: the minimal effective concentration is 1 µM.
Take `Cc1cc(OCc2c(F)cccc2F)c2nc(C)c(C(=O)NNC3CS(=O)(=O)CC3O)n2c1` (centres unmarked) [Example 73]: the minimal effective concentration stood at 3 µM.
Turning to `Cc1cc(OCc2c(F)cccc2F)c2nc(C)c(C(=O)NNCc3ccccc3)n2c1` [Example 67], the minimal effective concentration came to 1 µM.
As to `Cc1cc(OCc2c(F)cccc2F)c2nc(C)c(C(=O)NNC(=O)CN(C)C)n2c1` [Example 37], the minimal effective concentration came out at 0.1 µM.
Consider `Cc1cc(OCc2c(F)cccc2F)c2nc(C)c(C(=O)NNC(=O)C3CC3)n2c1` [Example 60], for which the minimal effective concentration was determined as 1 µM.
Consider `Cc1cc(OCc2c(F)cccc2F)c2nc(C)c(C(=O)NOCC3CC3)n2c1` [Example 77, N-(Cyclopropylmethoxy)-8[(2,6-difluorobenzyl)oxy]-2,6-dimethylimidazo[1,2-a]pyridine-3-carboxamide], for which the minimal effective concentration amounted to 0.3 µM.
On to `Cc1cc(OCc2c(F)cccc2F)c2nc(C)c(C(=O)NNC(=O)c3nccs3)n2c1` [Example 50], for which the minimal effective concentration was 1 µM.
In the case of `Cc1cc(OCc2c(F)cccc2F)c2nc(C)c(C(=O)NOCC(F)(F)F)n2c1` [Example 81, 8-[(2,6-Difluorobenzyl)oxy]-2,6-dimethyl-N-(2,2,2-trifluoroethoxy)imidazo[1,2-a]pyridine-3-carboxamide], the minimal effective concentration turned out to be 0.65 µM.
For the compound `Cc1cc(OCc2c(F)cccc2F)c2nc(C)c(C(=O)NNC3CCS(=O)(=O)CC3)n2c1` [Example 80, 8-[(2,6-Difluorobenzyl)oxy]-N′-(1,1-dioxidotetrahydro-2H-thiopyran-4-yl)-2,6-dimethylimidazo[1,2-a]pyridine-3-carbohydrazide], the minimal effective concentration came to 2 µM.
Consider `Cc1nc2c(OCC3CCCCC3)cccn2c1C(=O)NN1CCOCC1` [Example 15], for which the minimal effective concentration came to 1 µM.
Next, `Cc1cc(OCc2c(F)cccc2F)c2nc(C)c(C(=O)NNC(=O)C3CCCC3)n2c1` [Example 31]: 0.3 µM; `Cc1cc(OCc2c(F)cccc2F)c2nc(C)c(C(=O)NNc3ccc(F)cc3)n2c1` [Example 55]: 0.1 µM; `Cc1cc(OCc2c(F)cccc2F)c2nc(C)c(C(=O)NNc3cnc4ccccc4n3)n2c1` [Example 56]: 1 µM.
Regarding `CCCc1nc2c(OCc3c(F)cccc3F)cc(C)cn2c1C(=O)NN1CCOCC1` [Example 17], the minimal effective concentration came to 10 µM.
`Cc1cc(OCc2c(F)cccc2F)c2nc(C)c(C(=O)NNCCc3ccccc3)n2c1` [Example 49]: the minimal effective concentration was 1 µM.
In the case of `Cc1cc(OCc2c(F)cccc2F)c2nc(C)c(C(=O)NOC3COC3)n2c1` [Example 6], the minimal effective concentration is 1 µM.
`Cc1cc(OCc2c(F)cccc2F)c2nc(C)c(C(=O)NNc3ccnc4c(F)cccc34)n2c1` [Example 57]: the minimal effective concentration was 1 µM.
Under `COc1cc(OCc2c(F)cccc2F)c2nc(C)c(C(=O)NN3CCOCC3)n2c1` [Example 21] stands 3 µM; under `Cc1cc(OCc2c(F)cccc2F)c2nc(C)c(C(=O)NNc3ccc(C(C)(C)C)cc3)n2c1` [Example 47], 3 µM; under `CCCCCCC(C)NNC(=O)c1c(C)nc2c(OCc3c(F)cccc3F)cc(C)cn12` (centres unmarked) [Example 42], 3 µM.
As to `CCCCCCC(CCC)NNC(=O)c1c(C)nc2c(OCc3c(F)cccc3F)cc(C)cn12` (centres unmarked) [Example 44], the minimal effective concentration was found to be 3 µM.
Turning to `O=C(NOCCO)c1cnc2c(OCc3c(F)cccc3F)cccn12` [Example 14], the minimal effective concentration turned out to be 10 µM.
On to `Cc1cc(OCc2c(F)cccc2F)c2nc(C)c(C(=O)NN3CCC(C(F)(F)F)C3)n2c1` (centres unmarked) [Example 79, 8-[(2,6-Difluorobenzyl)oxy]-2,6-dimethyl-N-[3-(trifluoromethyl)pyrrolidin-1-yl]imidazo[1,2-a]pyridine-3-carboxamide], for which the minimal effective concentration was 0.1 µM.
In the case of `CCc1nc2c(OCc3c(F)cccc3F)cc(C)cn2c1C(=O)NN1CCOCC1` [Example 20], the minimal effective concentration came out at 1 µM.
With `Cc1cc(OCc2c(F)cccc2F)c2nc(C)c(C(=O)NNc3ccc(Cl)c(Cl)c3)n2c1` [Example 52], the minimal effective concentration is 0.3 µM.
Under `Cc1cc(C)cc(NNC(=O)c2c(C)nc3c(OCc4c(F)cccc4F)cc(C)cn23)c1` [Example 53] stands 1 µM; under `Cc1cc(OCc2c(F)cccc2F)c2nc(C)c(C(=O)NNC(C)(C)C)n2c1` [Example 38], 0.3 µM.
Next, `CCOC(=O)CNNC(=O)c1c(C)nc2c(OCc3c(F)cccc3F)cc(C)cn12` [Example 68]: 1 µM.
As for `Cc1cc(OCc2c(F)cccc2F)c2nc(C)c(C(=O)NNCC(F)(F)F)n2c1` [Example 41], the minimal effective concentration was 0.3 µM.
Regarding `Cc1cccc(NNC(=O)c2c(C)nc3c(OCc4c(F)cccc4F)cc(C)cn23)c1` [Example 39], the minimal effective concentration worked out at 0.3 µM.
Take `Cc1cc(OCc2c(F)cccc2F)c2nc(C)c(C(=O)NNC(=O)CN3CCOCC3)n2c1` [Example 76, 8-[(2,6-Difluorobenzyl)oxy]-2,6-dimethyl-N′-(morpholin-4-ylacetyl)imidazo[1,2-a]pyridine-3-carbohydrazide]: the minimal effective concentration was determined as 0.3 µM.
As to `CSCCNNC(=O)c1c(C)nc2c(OCc3c(F)cccc3F)cc(C)cn12` [Example 66], the minimal effective concentration stood at 3 µM.
For the compound `Cc1cc(OCc2c(F)cccc2F)c2nc(C)c(C(=O)NNC3CCCC3O)n2c1` (centres unmarked) [Example 70], the minimal effective concentration was determined as 0.3 µM.
With `Cc1cc(OCc2c(F)cccc2F)c2nc(C)c(C(=O)NNc3ccccn3)n2c1` [Example 40], the minimal effective concentration came out at 0.3 µM.
Consider `CCNNC(=O)c1c(C)nc2c(OCc3c(F)cccc3F)cc(C)cn12` [Example 61], for which the minimal effective concentration stood at 10 µM.
With `Cc1cc(OCc2c(F)cccc2F)c2nc(C)c(C(=O)NNCC(C)C)n2c1` [Example 27, 8-[(2,6-Difluorobenzyl)oxy]-N′-isobutyl-2,6-dimethylimidazo[1,2-a]pyridine-3-carbohydrazide], the minimal effective concentration was 0.3 µM.
Consider `Cc1cc(OCc2c(F)cccc2F)c2nc(C)c(C(=O)NOCCO)n2c1` [Example 1, 8-[(2,6-Difluorobenzyl)oxy]-N-(2-hydroxyethoxy)-2,6-dimethylimidazo[1,2-a]pyridine-3-carboxamide], for which the minimal effective concentration was 0.3 µM.
